Assay results as given in patent US20090076571A1, “MRI-Guided Photodynamic Therapy For Cancer” (priority 2004, published 2009).

Assays:
[1] = T1 relaxivity of polymer complexes; type: physicochemical; conditions: Siemens Trio 3T scanner, inversion recovery sequence
[2] = system: MDA-MB-231 human breast carcinoma xenograft tumor; assay: Contrast-enhanced MR imaging of tumor-bearing mice after injection of polymer conjugates; type: in vivo, female athymic nu/nu mice; conditions: for Contrast in all tissues including tumor, heart and liver compared to pre-contrast: 5 minutes post injection; for Increase in signal intensity of tumor as compared to precontrast: 2 hours post injection, semi-quantitative evaluation, 6 mice per group
Procedure: Female athymic nu/nu mice were purchased from NCI (Frederick, Md.) at the age of 6 weeks. To generate tumor models, each mouse was injected subcutaneously with 2×10^6 MB-231 cells in 100 μl of culture media mixed with 100 μl of BD MATRIGEL, a solubulized basement membrane preparation extracted from EHS mouse sarcoma, in the flank region. Magnetic resonance imaging and photodynamic therapy studies were carried out at an average tumor size of 25-40 mm^3.
MR imaging was performed on a Siemens Trio 3T MRI scanner. The animals were anesthetized by intra-peritoneal or intra-muscular injection of the anesthetic (mixture of ketamine—80 mg/kg body weight and xylazine—12 mg/kg body weight).
For imaging purposes, the animals were placed in the human wrist coil and pre-contrast images (prior to the injection of the polymer chelate system containing the drug and the contrast agent) were obtained using a 3D FLASH (Fast Low Angle Shot) sequence.
After obtaining the pre-contrast images, the macromolecular complexes were injected at a dose of 0.09 mmol Gd/kg body weight and 6 mg/kg of Mce6 by tail vein injection. Image acquisition was set at 5, 30, 60, 120 minutes and 24 hours post injection. Animal imaging was performed using the multi-phase T1 weighted sequence. The repetition time was about 6 milliseconds to 2 milliseconds, respectively; consistent with the 4 to 8 cm FIV (field of view) and 0.5 mm slice thickness chosen for each animal. The imaging volume was acquired before injection and in rapid succession after injection. Each acquisition required about 30 seconds.
MR imaging. […] FIG. 7 and FIG. 8 show 2D coronal MR images through tumor and heart respectively. The upper panel of FIG. 7 represents mice with Pol1 and the lower panel upper represents mice with Pol2. The upper panel of FIG. 8 represents mice with Pol1 and the lower panel represents mice with Pol2. […] The higher signal in heart may be due to high molecular weight fractions of the control polymer.
Increase in Signal intensity of tumor for both groups as compared to precontrast at 2 hours is 100%. Signal intensity at 18 hours post injection was at least 30% higher than precontrast for both Pol1 and Pol2. Quantitative evaluation of signal intensities using IDL was performed to corroborate the data obtained from semi-quantitative analysis.

[3] = system: MDA-MB-231 human breast carcinoma xenograft tumor; assay: Efficiency of photodynamic therapy (650 nm laser irradiation of tumor); type: in vivo, female athymic nu/nu mice; conditions: for Tumor volume after photodynamic therapy: FIG. 11, irradiation 650 nm, 6 mice per group
Procedure: Molecular weight determination was carried out by Size Exclusion Chromatography (SEC) on an AKTA FPLC system with a Superdex 200/Superose 6 column equipped with UV and refractive index detectors (Amersham Biosciences Corp., Piscataway, N.J.). The FPLC columns were calibrated with poly[N-(2-hydroxypropyl)methacrylamide] standards. ^1H NMR spectra were acquired on a Varian INOVA 400 at 400 MHz at 25° C. ESI-MS spectra were acquired on a PE Sciex API III Mass Spectrometer at the University of Utah Mass Spectrometry and Proteonomic Core Facility. Meso chlorin content was determined on Cary Win UV-Vis spectrometer. Gd content was determined using Inductively Coupled argon Plasma-Optical Emission Spectrometer (ICP-OES) (Perkin Elmer, Norwalk, Conn., Optima 3100XL). T1 relaxivity measurements for the final conjugates were acquired on a Siemens Trio 3T MRI scanner using standard inversion recovery sequence. Photodynamic therapy was carried out via Diode Odyssey laser (650nm) (CAO Group, UT).
Female athymic nu/nu mice were purchased from NCI (Frederick, Md.) at the age of 6 weeks. […] Magnetic resonance imaging and photodynamic therapy studies were carried out at an average tumor size of 25-40 mm^3.
Then the tumor was irradiated, 2 hours and 18 hours post-injection, using light of wavelength 650 nm (Denlaser) with an input of 220 mW/cm^2 energy and 0.5 mm aperture for irradiation. The time of irradiation was 15 minutes. The mice were then kept away from direct light to avoid extraneous irradiation and the reduction in tumor volume was measured.
Efficiency of Photodynamic therapy.

In the case of Gd (III)-DOTA-linker-PLGA-Mce6 [Pol1], the Relaxivity [1] is reported as 8.46 mM − 1 sec − 1, the “Contrast in all tissues including tumor, heart and liver compared to pre-contrast” value [2] is reported as “increased contrast” and the “Increase in signal intensity of tumor as compared to precontrast” value [2] is reported as 100%. The “Mice surviving for the time period of the experiment” value ([3]; 90 days, group of 6 mice) was 4 out of 6 and the “Tumor volume after photodynamic therapy” value [3] was “reduction in tumor volume or slowed tumor growth”.

In the case of Gd (III)-DOTA-linker-PLGA [Pol2], the Relaxivity [1] is reported as 8.33 mM − 1 sec − 1, the “Contrast in all tissues including tumor, heart and liver compared to pre-contrast” value [2] is reported as “increased contrast” and the “Increase in signal intensity of tumor as compared to precontrast” value [2] is reported as 100%. For the same substance, the “Tumor volume after photodynamic therapy” value [3] was “rapid increase in tumors” and the “Mice with tumors larger than 10% of the body weight, sacrificed” value ([3]; out of 6 mice in the group) was 5.
